From patent publication US11464770B2, “Anticancer pharmaceutical composition” (NATIONAL CANCER CENTER, priority 2016, dated 2022)
Where two headings read alike, the source gives them in different places.

Test system: breast cancer cell lines (e.g. MDA-MB-231, SK-BR-3, MDA-MB-468, HCC1954)
Test: Cell based assay, cell viability (CellTiter-Glo), breast cancer cell lines
Experimental: Commercially available bladder cancer, prostate cancer, lung cancer, breast cancer, blood cancer, pancreatic cancer, colorectal cancer, brain cancer, neuroblastoma, melanoma, liver cancer, cervical carcinoma, ovarian cancer, renal cancer, and papilloma cell lines were each treated with trypsin-EDTA and cultured, followed by being seeded in each well of a 96 well plate. After 24 hours of treatment at constant temperature, the respective cells were treated with the candidate compound so that a final concentration became 0 to 2 μM. The treated cells were additionally cultured for 72 hours, and cell viability was measured by using an ATP detection method (CellTiter-Glo® Luminescent Cell Viability Assay, Promega).

[1] = Breast cancer cell line MDA-MB-231-L/DOX, 72 hours, CellTiter-Glo, read-out: IC50, MDA-MB-231-L/DOX
[2] = Homo sapiens, Breast cancer cell line BT-20, 72 hours, CellTiter-Glo, read-out: IC50, BT-20
[3] = Homo sapiens, Breast cancer cell line HCC1395, 72 hours, CellTiter-Glo, read-out: IC50, HCC1395
[4] = Homo sapiens, Breast cancer cell line HCC1954, 72 hours, CellTiter-Glo, read-out: IC50, HCC1954
[5] = Homo sapiens, Breast cancer cell line JIMT-1, 72 hours, CellTiter-Glo, read-out: IC50, JIMT-1
[6] = Homo sapiens, Breast cancer cell line MCF7, 72 hours, CellTiter-Glo, read-out: IC50, MCF7
[7] = Homo sapiens, Breast cancer cell line MDA-MB-231, 72 hours, CellTiter-Glo, read-out: IC50, MDA-MB-231
[8] = Homo sapiens, Breast cancer cell line MDA-MB-468, 72 hours, CellTiter-Glo, read-out: IC50, MDA-MB-468
[9] = Homo sapiens, Breast cancer cell line SK-BR-3, 72 hours, CellTiter-Glo, read-out: IC50, SK-BR-3
[10] = Homo sapiens, BT-20 cells, 72 hours treatment, CellTiter-Glo cell viability, read-out: IC50, Breast cancer cell line BT-20
[11] = Homo sapiens, HCC1395 cells, 72 hours treatment, CellTiter-Glo cell viability, read-out: IC50, Breast cancer cell line HCC1395
[12] = Homo sapiens, HCC1954 cells, 72 hours treatment, CellTiter-Glo cell viability, read-out: IC50, Breast cancer cell line HCC1954
[13] = Homo sapiens, JIMT-1 cells, 72 hours treatment, CellTiter-Glo cell viability, read-out: IC50, Breast cancer cell line JIMT-1
[14] = Homo sapiens, MCF7 cells, 72 hours treatment, CellTiter-Glo cell viability, read-out: IC50, Breast cancer cell line MCF7
[15] = Homo sapiens, MDA-MB-231 cells, 72 hours treatment, CellTiter-Glo cell viability, read-out: IC50, Breast cancer cell line MDA-MB-231
[16] = Homo sapiens, MDA-MB-468 cells, 72 hours treatment, CellTiter-Glo cell viability, read-out: IC50, Breast cancer cell line MDA-MB-468
[17] = Homo sapiens, SK-BR-3 cells, 72 hours treatment, CellTiter-Glo cell viability, read-out: IC50, Breast cancer cell line SK-BR-3
[18] = MDA-MB-231-L/DOX cells, 72 hours treatment, CellTiter-Glo cell viability, read-out: IC50, Breast cancer cell line MDA-MB-231-L/DOX

IC50 [1] [nM] | IC50 [2] [nM] | IC50 [3] [nM] | IC50 [4] [nM] | IC50 [5] [nM] | IC50 [6] [nM] | IC50 [7] [nM] | IC50 [8] [nM] | IC50 [9] [nM] | IC50 [10] [nM] | IC50 [11] [nM] | IC50 [12] [nM] | IC50 [13] [nM] | IC50 [14] [nM] | IC50 [15] [nM] | IC50 [16] [nM] | IC50 [17] [nM] | IC50 [18] [nM] | Structure (SMILES)
> 2000 | > 2000 | > 10000 | > 2000 | > 10000 | > 2000 | > 2000 | > 2000 | > 2000 |  |  |  |  |  |  |  |  |  | CC(=O)c1c(SCc2ccccc2)[nH]c2c(Br)ccc(Cl)c2c1=O [Compound 3, 3-acetyl-2-(benzylthio)-8-bromo-5-chloroquinolin-4(1H)-one]
 |  |  |  |  |  |  |  |  | > 2000 | > 10000 | > 2000 | > 10000 | > 2000 | > 2000 | > 2000 | 1770 | > 2000 | CC(=O)c1c([S+]([O-])Cc2cc(C)on2)[nH]c2c(F)ccc(F)c2c1=O (stereo not drawn) [Compound 82, 3-acetyl-5,8-difluoro-2-(((5-methylisoxazol-3-yl)methyl)sulfinyl)quinolin-4(1H)-one]
 |  |  |  |  |  |  |  |  | > 2000 | > 10000 | 1820 | > 10000 | > 2000 | > 2000 | 1320 | 1320 | > 2000 | COC(=O)c1ccc(C[S+]([O-])c2[nH]c3c(Cl)ccc(Cl)c3c(=O)c2C(C)=O)cc1 (stereo not drawn) [Compound 91, methyl 4-(((3-acetyl-5,8-dichloro-4-oxo-1,4-dihydroquinolin-2-yl)sulfinyl)methyl)benzoate]
 |  |  |  |  |  |  |  |  | > 2000 | > 10000 | 1020 | > 10000 | > 2000 | 1720 | 1350 | 850 | > 2000 | CC(=O)c1c([S+]([O-])Cc2ccc(C(F)(F)F)nc2C)[nH]c2c(Br)ccc(Cl)c2c1=O (stereo not drawn) [Compound 102, 3-acetyl-8-bromo-5-chloro-2-(((2-methyl-6-(trifluoromethyl)pyridin-3-yl)methyl)sulfinyl)quinolin-4(1H)-one]
> 2000 | > 2000 | > 10000 | > 2000 | > 10000 | > 2000 | > 2000 | > 2000 | > 2000 |  |  |  |  |  |  |  |  |  | CC(=O)c1c(SC(C)C)[nH]c2c(Br)ccc(Cl)c2c1=O [Compound 24, 3-acetyl-8-bromo-5-chloro-2-(isopropylthio)quinolin-4(1H)-one]
> 2000 | > 2000 | > 10000 | > 2000 | > 10000 | > 2000 | > 2000 | > 2000 | > 2000 |  |  |  |  |  |  |  |  |  | CC(=O)c1c(S(=O)(=O)Cc2ccccc2)nc2c(Br)ccc(Cl)c2c1O [Compound 54, 1-(2-(benzylsulfonyl)-8-bromo-5-chloro-4-hydroxyquinolin-3-yl)ethan-1-one]
> 2000 | > 2000 | > 10000 | > 2000 | > 10000 | > 2000 | > 2000 | > 2000 | > 2000 |  |  |  |  |  |  |  |  |  | CCS(=O)(=O)n1c([S+](C)[O-])c(C(C)=O)c(=O)c2c(Cl)ccc(Br)c21 (stereo not drawn) [Compound 39, 3-acetyl-8-bromo-5-chloro-1-(ethylsulfonyl)-2-(methylsulfinyl)quinolin-4(1H)-one]
> 2000 | > 2000 | > 10000 | > 2000 | > 10000 | > 2000 | 1410 | > 2000 | 660 |  |  |  |  |  |  |  |  |  | CC(=O)c1c([S+]([O-])Cc2cccc(C#N)c2)[nH]c2c(Br)ccc(Cl)c2c1=O (stereo not drawn) [Compound 28, 3-(((3-acetyl-8-bromo-5-chloro-4-oxo-1,4-dihydroquinolin-2-yl)sulfinyl)methyl)benzonitrile]
 |  |  |  |  |  |  |  |  | > 2000 | > 10000 | > 2000 | > 10000 | > 2000 | > 2000 | > 2000 | > 2000 | > 2000 | Cc1cc(C[S+]([O-])c2[nH]c3c(Cl)ccc(Cl)c3c(=O)c2C(=O)c2ccccc2)no1 (stereo not drawn) [Compound 88, 3-benzoyl-5,8-dichloro-2-(((5-methylisoxazol-3-yl)methyl)sulfinyl)quinolin-4(1H)-one]
> 2000 | > 2000 | > 10000 | > 2000 | > 10000 | > 2000 | > 2000 | > 2000 | > 2000 |  |  |  |  |  |  |  |  |  | CC(=O)c1c([S+](C)[O-])n(S(=O)(=O)C(F)(F)F)c2c(Br)ccc(Cl)c2c1=O (stereo not drawn) [Compound 36, 3-acetyl-8-bromo-5-chloro-2-(methylsulfinyl)-1-((trifluoromethyl)sulfonyl)quinolin-4(1H)-one]
> 2000 | > 2000 | > 10000 | > 2000 | > 10000 | > 2000 | > 2000 | > 2000 | > 2000 |  |  |  |  |  |  |  |  |  | CC(=O)c1c(SCc2cccc(I)c2)[nH]c2c(Br)ccc(Cl)c2c1=O [Compound 47, 3-acetyl-8-bromo-5-chloro-2-((3-iodobenzyl)thio)quinolin-4(1H)-one]
> 2000 | > 2000 | > 10000 | > 2000 | > 10000 | > 2000 | > 2000 | > 2000 | > 2000 |  |  |  |  |  |  |  |  |  | CC(=O)c1c(SCc2ccccc2)n(C(=O)c2ccc(Br)cc2)c2c(Br)ccc(Cl)c2c1=O [Compound 23, 3-acetyl-2-(benzylthio)-8-bromo-1-(4-bromobenzoyl)-5-chloroquinolin-4(1H)-one]
 |  |  |  |  |  |  |  |  | > 2000 | > 10000 | > 2000 | > 10000 | > 2000 | > 2000 | > 2000 | > 2000 | > 2000 | CC(=O)c1c([S+]([O-])Cc2cnc3[nH]ccc3c2)[nH]c2c(Br)ccc(Cl)c2c1=O (stereo not drawn) [Compound 107, 2-(((1H-pyrrolo[2,3-b]pyridin-5-yl)methyl)sulfinyl)-3-acetyl-8-bromo-5-chloroquinolin-4(1H)-one]
> 2000 | > 2000 | > 10000 | > 2000 | > 10000 | > 2000 | > 2000 | > 2000 | > 2000 |  |  |  |  |  |  |  |  |  | CSc1c(C(C)=O)c(=O)c2c(Cl)ccc(Br)c2n1S(=O)(=O)c1ccc(Cl)cc1 [Compound 37, 3-acetyl-8-bromo-5-chloro-1-((4-chlorophenyl)sulfonyl)-2-(methylthio)quinolin-4(1H)-one]
> 2000 | > 2000 | > 10000 | > 2000 | > 10000 | > 2000 | > 2000 | > 2000 | 1440 |  |  |  |  |  |  |  |  |  | CC(=O)c1c([S+]([O-])Cc2cccc(S(F)(F)(F)(F)F)c2)[nH]c2c(Br)ccc(Cl)c2c1=O (stereo not drawn) [Compound 77, 3-acetyl-8-bromo-5-chloro-2-((3-(pentafluoro--sulfanyl)benzyl)sulfinyl)quinolin-4(1H)-one]
 |  |  |  |  |  |  |  |  | > 2000 | > 10000 | > 2000 | > 10000 | > 2000 | > 2000 | 1850 | 1850 | > 2000 | COc1cccc2[nH]c([S+]([O-])Cc3cc(C)on3)c(C(C)=O)c(=O)c12 (stereo not drawn) [Compound 94, 3-acetyl-5-methoxy-2-(((5-methylisoxazol-3-yl)methyl)sulfinyl)quinolin-4(1H)-one]
> 2000 | > 2000 | > 10000 | > 2000 | > 10000 | > 2000 | > 2000 | > 2000 | > 2000 |  |  |  |  |  |  |  |  |  | CSc1c(C(C)=O)c(=O)c2cc(F)ccc2n1C [Compound 7, 3-acetyl-6-fluoro-1-methyl-2-(methylthio)quinolin-4(1H)-one]
> 2000 | > 2000 | > 10000 | > 2000 | > 10000 | > 2000 | > 2000 | > 2000 | > 2000 |  |  |  |  |  |  |  |  |  | CC(=O)c1c([S+](C)[O-])n(Cc2ccc(F)c(Cl)c2)c2c(Br)ccc(Cl)c2c1=O (stereo not drawn) [Compound 22, 3-acetyl-8-bromo-5-chloro-1-(3-chloro-4-fluorobenzyl)-2-(methylsulfinyl)quinolin-4(1H)-one]

Structure (SMILES) | IC50 [1] [nM] | IC50 [2] [nM] | IC50 [3] [nM] | IC50 [4] [nM] | IC50 [5] [nM] | IC50 [6] [nM] | IC50 [7] [nM] | IC50 [8] [nM] | IC50 [9] [nM] | IC50 [10] [nM] | IC50 [11] [nM] | IC50 [12] [nM] | IC50 [13] [nM] | IC50 [14] [nM] | IC50 [15] [nM] | IC50 [16] [nM] | IC50 [17] [nM] | IC50 [18] [nM]
CC(=O)c1c([S+]([O-])Cc2ccccc2)nc2c(Br)ccc(Cl)c2c1O (stereo not drawn) [Compound 53, 1-(2-(benzylsulfinyl)-8-bromo-5-chloro-4-hydroxyquinolin-3-yl)ethan-1-one] | > 2000 | > 2000 | > 10000 | > 2000 | > 10000 | > 2000 | > 2000 | > 2000 | > 2000 |  |  |  |  |  |  |  |  | 
